The record followed here is patent EP0761679A1, “N-Butylsulfonate esters of estrogens” (ELI LILLY AND COMPANY, priority 1995, dated 1997).

The test concerns ovariectomized rat. In words: ovariectomized (ovex) rat model, uterine wet weight after four days of oral treatment. The note with it: 96 h, 0.1 mg/kg P.O. (gavage in 0.5 mL of 1% carboxymethylcellulose suspension), ovariectomized female rats, read-out: Uterine weight as percent control @ 0.1 mg/kg P.O. Format: in vivo, Sprague Dawley rats. The protocol: Seventy-five day old female Sprague Dawley rats (weight range of 225-275 g) were obtained from Charles River Laboratories (Portage, MI). The animals were either bilaterally ovariectomized or exposed to a sham surgical procedure at Charles River Laboratories, and then shipped after one week. They were housed in groups of three and had ad libitum access to food and water. Room temperature was maintained at 22.2° C with 40% relative humidity. The photo-period was 12 hours of light and 12 hours of darkness. One week after arrival (thus, 14 days post-ovariectomy), the rats were treated with vehicle, 17-α-ethinyl estradiol, parent hydroxy estrogens, or a compound of formula I was initiated. After four days of treatment, blood was collected by cardiac puncture, the animals were sacrificed by carbon dioxide asphyxiation and the uteri were removed and wet weight determined. […] All compounds were given by oral dosage (gavage in 0.5 mL of 1% carboxymethylcellulose suspension). For comparison purposes, the data represented are for 0.1 mg/kg for all compounds. The positive control was 0.1 mg/kg of 17-α-ethinyl estradiol, a known, orally available estrogen.
On to `C[C@]12CC[C@@H]3c4ccc(O)cc4CC[C@H]3[C@@H]1CCC2=O` [Estrone], for which the response vs control in vivo at 0.1 mg/kg worked out at 35%. Take `C[C@]12CC[C@@H]3c4ccc(OS(=O)(=O)c5ccccc5)cc4CC[C@H]3[C@@H]1CC[C@@H]2O` [3-phenylsulfonoyl-17-β-estradiol]: the response vs control in vivo at 0.1 mg/kg turned out to be 0%. As for `C[C@]12CC[C@@H]3c4ccc(OS(C)(=O)=O)cc4CC[C@H]3[C@@H]1CCC2=O` [3-methanesulfonoyl estrone], the response vs control in vivo at 0.1 mg/kg stood at 0%.

Regarding `C[C@]12CC[C@@H]3c4ccc(OS(C)(=O)=O)cc4CC[C@H]3[C@@H]1CC[C@@H]2O` [3-methanesulfonoyl-17-β-estradiol], the response vs control in vivo at 0.1 mg/kg worked out at 17%. As for `CCCCS(=O)(=O)Oc1ccc2c(c1)CC[C@@H]1[C@@H]2CC[C@]2(C)C(=O)CC[C@@H]12` [3-n-butylsulfonyl estrone, 3-n-butylsulfonoyl estrone], the response vs control in vivo at 0.1 mg/kg worked out at 67%. As for `C[C@]12CC[C@@H]3c4ccc(O)cc4CC[C@H]3[C@@H]1CC[C@@H]2O` [17-β-estradiol], the response vs control in vivo at 0.1 mg/kg stood at 43%. As to `C[C@]12CC[C@@H]3c4ccc(OS(C)(=O)=O)cc4CC[C@H]3[C@@H]1CC[C@@H]2OS(C)(=O)=O` [3,17-β-di-methanesulfonoyl estradiol], the response vs control in vivo at 0.1 mg/kg came out at 0%.

With `CCCCS(=O)(=O)Oc1ccc2c(c1)CC=C1[C@@H]2CC[C@]2(C)C(=O)CC[C@@H]12` [3-n-butylsulfonoyl equilin], the response vs control in vivo at 0.1 mg/kg was determined as 119%. Regarding `C[C@]12CC[C@@H]3c4ccc(OS(=O)(=O)c5ccccc5)cc4CC[C@H]3[C@@H]1CCC2=O` [3-phenylsulfonoyl estrone], the response vs control in vivo at 0.1 mg/kg came out at 10%. As to `CCCCS(=O)(=O)Oc1ccc2c(c1)CC[C@@H]1[C@@H]2CC[C@]2(C)[C@@H](OS(=O)(=O)CCCC)CC[C@@H]12` [3,17-β-di-n-butylsulfonoyl estradiol], the response vs control in vivo at 0.1 mg/kg worked out at 112%. As to `C[C@]12CC[C@H]3C(=CCc4cc(O)ccc43)[C@@H]1CCC2=O` [Equilin], the response vs control in vivo at 0.1 mg/kg worked out at 47%.
